Data published in ChEMBL document CHEMBL5154740, “Novel Aurora A and Protein Kinase C (α, β1, β2, and θ) Multitarget Inhibitors: Impact of Selenium Atoms on the Potency and Selectivity” (J Med Chem, 2022).

Columns and labels:
[1] = biological target: ALK tyrosine kinase receptor (Homo sapiens) (UniProt Q9UM73); assay: Inhibition of ALK (unknown origin) at 50 nM by Z'LYTE screening method relative to control
[2] = biological target: Cell division control protein 42 homolog (Homo sapiens) (UniProt P60953); assay: Inhibition of CDC42 delta (unknown origin) at 50 nM by Z'LYTE screening method relative to control
[3] = biological target: Dual specificity mitogen-activated protein kinase kinase 1 (Homo sapiens) (UniProt Q02750); assay: Inhibition of MAP2K1 (unknown origin) at 50 nM by Z'LYTE screening method relative to control
[4] = biological target: Mitogen-activated protein kinase 1 (Homo sapiens) (UniProt P28482); assay: Inhibition of MAPK1 (unknown origin) at 50 nM by Z'LYTE screening method relative to control
[5] = biological target: Mitogen-activated protein kinase 8 (Homo sapiens) (UniProt P45983); assay: Inhibition of MAPK8 (unknown origin) at 50 nM by Z'LYTE screening method relative to control
[6] = biological target: Serine/threonine-protein kinase PAK 1 (Homo sapiens) (UniProt Q13153); assay: Inhibition of PAK1 (unknown origin) at 50 nM by Z'LYTE screening method relative to control
[7] = biological target: Protein kinase C beta type (Homo sapiens) (UniProt P05771); assay: Inhibition of PKCbeta1 (unknown origin) at 50 nM by Z'LYTE screening method relative to control
[8] = biological target: Protein kinase C beta type (Homo sapiens) (UniProt P05771); assay: Inhibition of PKCbeta2 (unknown origin) at 50 nM by Z'LYTE screening method relative to control
[9] = biological target: T1, Serine/threonine-protein kinase D1 (Homo sapiens) (UniProt Q15139); assay: Inhibition of PKCmu (unknown origin) at 50 nM by Z'LYTE screening method relative to control
T1 sequence (whole entry): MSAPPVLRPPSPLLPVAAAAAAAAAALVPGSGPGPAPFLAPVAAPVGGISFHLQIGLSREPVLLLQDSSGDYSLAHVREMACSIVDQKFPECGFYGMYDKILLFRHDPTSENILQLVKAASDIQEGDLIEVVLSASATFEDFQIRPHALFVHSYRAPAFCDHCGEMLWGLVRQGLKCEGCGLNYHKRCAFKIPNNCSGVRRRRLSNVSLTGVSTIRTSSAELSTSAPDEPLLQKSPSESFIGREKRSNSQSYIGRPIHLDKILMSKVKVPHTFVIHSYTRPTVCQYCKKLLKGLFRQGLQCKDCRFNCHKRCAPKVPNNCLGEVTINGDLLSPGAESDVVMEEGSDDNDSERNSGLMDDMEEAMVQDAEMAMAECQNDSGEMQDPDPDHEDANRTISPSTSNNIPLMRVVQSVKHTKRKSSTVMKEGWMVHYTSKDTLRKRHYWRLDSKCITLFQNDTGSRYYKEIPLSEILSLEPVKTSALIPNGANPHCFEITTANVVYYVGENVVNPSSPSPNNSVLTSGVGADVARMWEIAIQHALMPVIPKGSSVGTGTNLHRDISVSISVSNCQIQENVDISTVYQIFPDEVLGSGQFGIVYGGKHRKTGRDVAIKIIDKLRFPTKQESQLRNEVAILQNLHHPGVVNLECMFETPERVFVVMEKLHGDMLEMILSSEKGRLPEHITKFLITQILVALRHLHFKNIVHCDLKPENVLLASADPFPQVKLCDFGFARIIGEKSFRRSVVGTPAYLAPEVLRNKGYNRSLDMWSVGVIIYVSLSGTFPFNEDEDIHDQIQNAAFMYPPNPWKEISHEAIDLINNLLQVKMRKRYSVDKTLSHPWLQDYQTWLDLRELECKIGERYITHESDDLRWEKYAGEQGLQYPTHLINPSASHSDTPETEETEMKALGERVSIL

[10] = biological target: T2, Serine/threonine-protein kinase D3 (Homo sapiens) (UniProt O94806); assay: Inhibition of PKCnu (unknown origin) at 50 nM by Z'LYTE screening method relative to control
T2 sequence (whole entry): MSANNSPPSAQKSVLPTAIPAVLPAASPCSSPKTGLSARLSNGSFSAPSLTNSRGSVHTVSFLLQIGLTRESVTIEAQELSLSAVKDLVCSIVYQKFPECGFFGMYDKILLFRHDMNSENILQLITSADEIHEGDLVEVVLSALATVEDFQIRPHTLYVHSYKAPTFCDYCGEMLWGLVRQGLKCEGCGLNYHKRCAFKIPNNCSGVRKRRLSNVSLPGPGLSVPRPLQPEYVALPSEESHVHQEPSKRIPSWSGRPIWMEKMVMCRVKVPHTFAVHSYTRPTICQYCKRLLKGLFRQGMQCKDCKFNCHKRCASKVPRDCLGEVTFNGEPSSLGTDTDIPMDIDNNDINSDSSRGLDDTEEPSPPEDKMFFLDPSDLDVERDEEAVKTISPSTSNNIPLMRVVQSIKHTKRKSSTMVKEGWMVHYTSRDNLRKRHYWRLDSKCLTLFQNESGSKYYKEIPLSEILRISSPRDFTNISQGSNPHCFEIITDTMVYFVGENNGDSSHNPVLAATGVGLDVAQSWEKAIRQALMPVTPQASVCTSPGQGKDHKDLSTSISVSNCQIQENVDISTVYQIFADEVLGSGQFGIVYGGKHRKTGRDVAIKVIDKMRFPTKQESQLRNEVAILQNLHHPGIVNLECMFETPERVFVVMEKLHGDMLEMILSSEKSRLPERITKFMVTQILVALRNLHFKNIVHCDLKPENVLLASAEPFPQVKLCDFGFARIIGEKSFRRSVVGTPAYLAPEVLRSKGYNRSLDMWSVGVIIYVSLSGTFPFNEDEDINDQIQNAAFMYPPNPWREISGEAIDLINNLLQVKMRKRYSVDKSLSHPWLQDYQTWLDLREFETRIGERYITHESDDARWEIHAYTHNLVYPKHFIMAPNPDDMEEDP

[11] = biological target: Protein kinase C gamma type (Homo sapiens) (UniProt P05129); assay: Inhibition of PKC gamma (unknown origin) at 50 nM by Z'LYTE screening method relative to control
[12] = biological target: Proto-oncogene tyrosine-protein kinase Src (Homo sapiens) (UniProt P12931); assay: Inhibition of SRC (unknown origin) at 50 nM by Z'LYTE screening method relative to control
[13] = biological target: Tyrosine-protein kinase SYK (Homo sapiens) (UniProt P43405); assay: Inhibition of SYK (unknown origin) at 50 nM by Z'LYTE screening method relative to control
[14] = biological target: Proto-oncogene tyrosine-protein kinase receptor Ret (Homo sapiens) (UniProt P07949); assay: Inhibition of RET (unknown origin) at 50 nM by Z'LYTE screening method relative to control
[15] = biological target: Ribosomal protein S6 kinase beta-1 (Homo sapiens) (UniProt P23443); assay: Inhibition of p70S6K (unknown origin) at 50 nM by Z'LYTE screening method relative to control
MDA-MB-231 = assay: Cytotoxicity against human MDA-MB-231/M cells assessed as reduction in cell viability incubated for 96 hrs by MTT assay; format: functional, cell-based; conditions: MDA-MB-231, 96 h

Serine/threonine-protein kinase PAK 1 (Homo sapiens), sequence (Q13153 whole entry): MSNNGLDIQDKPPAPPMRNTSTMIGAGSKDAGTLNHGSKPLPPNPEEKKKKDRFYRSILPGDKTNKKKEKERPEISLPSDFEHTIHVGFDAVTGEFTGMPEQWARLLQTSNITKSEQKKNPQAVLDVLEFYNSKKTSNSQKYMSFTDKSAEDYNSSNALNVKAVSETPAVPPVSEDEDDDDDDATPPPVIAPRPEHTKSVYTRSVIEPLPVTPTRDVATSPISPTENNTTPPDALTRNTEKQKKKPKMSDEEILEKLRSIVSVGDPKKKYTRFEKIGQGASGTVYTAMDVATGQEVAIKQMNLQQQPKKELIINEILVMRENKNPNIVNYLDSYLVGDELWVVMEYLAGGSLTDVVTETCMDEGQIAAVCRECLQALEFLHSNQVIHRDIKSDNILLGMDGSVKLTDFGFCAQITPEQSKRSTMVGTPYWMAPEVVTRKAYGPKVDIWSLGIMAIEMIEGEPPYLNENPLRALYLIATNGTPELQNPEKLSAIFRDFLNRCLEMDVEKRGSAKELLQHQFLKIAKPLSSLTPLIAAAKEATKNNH
Dual specificity mitogen-activated protein kinase kinase 1 (Homo sapiens), sequence (Q02750 whole entry): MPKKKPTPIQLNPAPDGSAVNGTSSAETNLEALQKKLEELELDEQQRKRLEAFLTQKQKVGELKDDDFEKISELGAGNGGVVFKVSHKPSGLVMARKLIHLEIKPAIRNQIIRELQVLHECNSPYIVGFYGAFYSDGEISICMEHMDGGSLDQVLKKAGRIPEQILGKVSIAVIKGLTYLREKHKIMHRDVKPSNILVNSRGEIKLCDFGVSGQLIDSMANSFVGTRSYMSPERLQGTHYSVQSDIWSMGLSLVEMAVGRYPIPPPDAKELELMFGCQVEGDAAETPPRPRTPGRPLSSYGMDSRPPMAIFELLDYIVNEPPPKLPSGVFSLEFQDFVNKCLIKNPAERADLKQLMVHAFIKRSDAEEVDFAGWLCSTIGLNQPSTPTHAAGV
Mitogen-activated protein kinase 1 (Homo sapiens), sequence (P28482 whole entry): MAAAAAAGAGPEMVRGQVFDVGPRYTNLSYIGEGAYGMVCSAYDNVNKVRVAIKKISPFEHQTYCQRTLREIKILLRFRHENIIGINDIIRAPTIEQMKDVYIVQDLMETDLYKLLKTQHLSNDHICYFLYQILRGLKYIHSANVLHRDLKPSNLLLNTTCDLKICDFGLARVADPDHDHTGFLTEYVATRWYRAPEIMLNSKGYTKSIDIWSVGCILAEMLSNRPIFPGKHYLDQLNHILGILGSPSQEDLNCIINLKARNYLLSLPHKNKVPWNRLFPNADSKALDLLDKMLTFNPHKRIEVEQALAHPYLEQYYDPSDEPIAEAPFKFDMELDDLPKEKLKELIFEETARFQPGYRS
Protein kinase C beta type (Homo sapiens), sequence (P05771 2-671 limits assumed): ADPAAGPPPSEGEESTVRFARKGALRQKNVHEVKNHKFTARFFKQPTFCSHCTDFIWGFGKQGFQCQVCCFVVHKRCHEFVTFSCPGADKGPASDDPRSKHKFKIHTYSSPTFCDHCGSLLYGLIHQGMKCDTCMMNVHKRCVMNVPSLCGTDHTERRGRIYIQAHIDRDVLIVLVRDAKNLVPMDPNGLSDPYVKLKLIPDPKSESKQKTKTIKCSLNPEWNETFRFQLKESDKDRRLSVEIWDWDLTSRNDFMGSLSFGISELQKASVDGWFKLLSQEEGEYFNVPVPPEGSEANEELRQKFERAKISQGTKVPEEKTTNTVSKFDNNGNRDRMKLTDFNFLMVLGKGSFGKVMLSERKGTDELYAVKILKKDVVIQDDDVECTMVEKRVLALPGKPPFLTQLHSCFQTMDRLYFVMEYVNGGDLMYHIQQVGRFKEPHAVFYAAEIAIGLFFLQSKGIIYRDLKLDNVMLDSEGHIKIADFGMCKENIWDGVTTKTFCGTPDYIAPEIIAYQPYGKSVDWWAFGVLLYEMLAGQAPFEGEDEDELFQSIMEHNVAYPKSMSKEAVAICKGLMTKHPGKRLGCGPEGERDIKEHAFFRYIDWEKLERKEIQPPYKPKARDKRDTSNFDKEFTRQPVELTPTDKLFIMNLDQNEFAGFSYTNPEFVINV
ALK tyrosine kinase receptor (Homo sapiens), sequence (Q9UM73 19-1620 limits assumed): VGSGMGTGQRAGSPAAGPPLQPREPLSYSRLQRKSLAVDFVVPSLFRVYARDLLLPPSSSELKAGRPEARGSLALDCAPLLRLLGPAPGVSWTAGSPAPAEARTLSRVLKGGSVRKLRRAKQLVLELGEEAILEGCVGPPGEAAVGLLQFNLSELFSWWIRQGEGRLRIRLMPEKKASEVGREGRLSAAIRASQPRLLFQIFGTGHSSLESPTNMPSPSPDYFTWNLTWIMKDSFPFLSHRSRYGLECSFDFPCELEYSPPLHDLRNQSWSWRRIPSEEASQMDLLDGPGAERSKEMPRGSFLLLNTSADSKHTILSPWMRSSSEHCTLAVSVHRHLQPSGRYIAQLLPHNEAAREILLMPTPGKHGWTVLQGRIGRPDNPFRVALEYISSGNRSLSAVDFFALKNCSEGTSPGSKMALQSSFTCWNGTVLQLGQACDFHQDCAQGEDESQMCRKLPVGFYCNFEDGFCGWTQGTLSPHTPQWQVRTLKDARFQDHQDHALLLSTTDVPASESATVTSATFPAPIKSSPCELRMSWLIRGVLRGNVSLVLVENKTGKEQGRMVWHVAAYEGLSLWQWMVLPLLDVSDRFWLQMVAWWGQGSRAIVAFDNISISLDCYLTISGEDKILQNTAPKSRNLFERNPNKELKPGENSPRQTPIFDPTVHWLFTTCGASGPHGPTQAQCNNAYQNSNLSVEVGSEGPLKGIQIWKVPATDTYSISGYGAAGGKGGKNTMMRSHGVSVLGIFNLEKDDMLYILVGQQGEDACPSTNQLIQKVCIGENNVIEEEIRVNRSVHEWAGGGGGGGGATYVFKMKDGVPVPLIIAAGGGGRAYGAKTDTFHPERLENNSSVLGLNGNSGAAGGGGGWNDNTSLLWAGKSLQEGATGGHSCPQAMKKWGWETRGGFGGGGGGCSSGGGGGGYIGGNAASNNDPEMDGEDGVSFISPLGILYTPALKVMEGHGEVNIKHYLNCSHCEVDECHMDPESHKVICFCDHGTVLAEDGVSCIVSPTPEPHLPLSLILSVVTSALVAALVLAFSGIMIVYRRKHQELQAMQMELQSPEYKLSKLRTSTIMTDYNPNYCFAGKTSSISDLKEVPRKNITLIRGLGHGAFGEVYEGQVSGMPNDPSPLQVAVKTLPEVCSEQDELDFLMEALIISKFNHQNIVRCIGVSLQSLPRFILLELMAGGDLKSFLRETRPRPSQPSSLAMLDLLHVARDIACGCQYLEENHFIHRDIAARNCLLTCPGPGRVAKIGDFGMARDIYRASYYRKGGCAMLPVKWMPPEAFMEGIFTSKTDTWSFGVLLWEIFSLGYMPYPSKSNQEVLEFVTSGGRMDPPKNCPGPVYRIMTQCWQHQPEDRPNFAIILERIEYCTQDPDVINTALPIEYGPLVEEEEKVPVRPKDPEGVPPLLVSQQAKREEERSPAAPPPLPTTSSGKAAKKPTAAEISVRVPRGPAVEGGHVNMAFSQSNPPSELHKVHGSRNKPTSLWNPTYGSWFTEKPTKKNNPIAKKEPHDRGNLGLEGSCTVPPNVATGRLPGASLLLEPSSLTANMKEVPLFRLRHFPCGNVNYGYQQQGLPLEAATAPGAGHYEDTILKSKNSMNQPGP
Proto-oncogene tyrosine-protein kinase Src (Homo sapiens), sequence (P12931 2-536 limits assumed): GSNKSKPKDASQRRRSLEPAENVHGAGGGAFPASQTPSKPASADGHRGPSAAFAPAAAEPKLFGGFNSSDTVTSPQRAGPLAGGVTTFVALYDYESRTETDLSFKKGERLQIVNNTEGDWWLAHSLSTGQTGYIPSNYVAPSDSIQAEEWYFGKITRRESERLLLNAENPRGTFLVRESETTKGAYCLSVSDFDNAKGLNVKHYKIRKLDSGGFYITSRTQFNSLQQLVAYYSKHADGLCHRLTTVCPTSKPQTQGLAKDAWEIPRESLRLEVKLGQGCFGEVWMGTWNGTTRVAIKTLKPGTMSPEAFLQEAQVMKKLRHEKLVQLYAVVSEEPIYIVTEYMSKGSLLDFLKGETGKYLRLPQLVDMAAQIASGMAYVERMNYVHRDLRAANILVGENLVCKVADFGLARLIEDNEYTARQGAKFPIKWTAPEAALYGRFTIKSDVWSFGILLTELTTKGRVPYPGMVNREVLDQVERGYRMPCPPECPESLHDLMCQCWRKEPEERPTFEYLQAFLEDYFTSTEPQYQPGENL
Cell division control protein 42 homolog (Homo sapiens), sequence (P60953 whole entry, looked up): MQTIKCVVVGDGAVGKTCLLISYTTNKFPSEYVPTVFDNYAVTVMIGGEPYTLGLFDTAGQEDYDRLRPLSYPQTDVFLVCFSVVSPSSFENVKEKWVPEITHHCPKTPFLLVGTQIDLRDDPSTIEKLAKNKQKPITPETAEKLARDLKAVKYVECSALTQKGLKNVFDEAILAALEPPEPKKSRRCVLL

| SMILES | inhibition [1] | inhibition [2] | inhibition [3] | inhibition [4] | inhibition [5] | inhibition [6] | inhibition [7] | inhibition [8] | inhibition [9] | inhibition [10] | inhibition [11] | inhibition [12] | inhibition [13] | inhibition [14] | inhibition [15] | IC50 (MDA-MB-231) |
| --- | --- | --- | --- | --- | --- | --- | --- | --- | --- | --- | --- | --- | --- | --- | --- | --- |
| O=C1c2ccccc2CN1c1nc(NC2CCCC2)c2nc[nH]c2n1 | 2% | 0% | 1% | 0% | 0% | 0% | 0% | 9% | 1% | 4% | 2% | 0% | 1% | 2% | 1% | 24.7 µM |
| O=c1c2ccccc2[se]n1-c1nc(N[C@H]2CC[Se]C2)c2nc[nH]c2n1 | 0% | 0% | 10% | 9% | 0% | 0% | 95% | 8% | 7% | 6% | 47% | 0% | 0% | 7% | 3% | 1.2 µM |
| O=c1c2ccccc2[se]n1-c1nc(N[C@H]2CCOC2)c2nc[nH]c2n1 | 1% | 0% | 2% | 2% | 0% | 0% | 84% | 7% | 0% | 3% | 25% | 3% | 2% | 7% | 6% | 2.3 µM |
| O=C1c2ccccc2CN1c1nc(N[C@H]2CC[Se]C2)c2nc[nH]c2n1 | 0% | 0% | 3% | 0% | 0% | 0% | 7% | 9% | 1% | 3% | 3% | 0% | 1% | 2% | 2% | 26.1 µM |
| C[C@@H]1[C@H]2C[C@@H](C[C@H]1Nc1nc(-n3[se]c4ccccc4c3=O)nc3[nH]cnc13)C2(C)C | 1% | 0% | 5% | 1% | 0% | 1% | 5% | 5% | 1% | 1% | 1% | 0% | 1% | 2% | 2% | 47.7 µM |
| O=c1c2ccccc2[se]n1-c1nc(NC2CCCCC2)c2nc[nH]c2n1 | 1% | 0% | 6% | 0% | 0% | 0% | 59% | 62% | 5% | 0% | 45% | 3% | 5% | 13% | 1% | 10.2 µM |
| O=c1c2ccccc2[se]n1-c1nc(N[C@@H]2C[C@H]3CC[C@@H]2C3)c2nc[nH]c2n1 | 0% | 0% | 2% | 0% | 0% | 1% | 0% | 62% | 2% | 1% | 0% | 2% | 3% | 6% | 2% | 32.4 µM |
| CCCNc1nc(-n2[se]c3ccccc3c2=O)nc2[nH]cnc12 | 1% | 1% | 2% | 1% | 0% | 1% | 2% | 95% | 0% | 0% | 1% | 2% | 2% | 0% | 0% | 23.2 µM |
| CCN(CC)CCCC(C)Nc1nc(N2Cc3ccccc3C2=O)nc2[nH]cnc12 (stereo unspecified) | 0% | 0% | 5% | 2% | 0% | 2% | 5% | 25% | 0% | 2% | 1% | 0% | 2% | 2% | 1% | 22.1 µM |
| CCN(CC)CCCC(C)Nc1nc(-n2[se]c3ccccc3c2=O)nc2[nH]cnc12 (stereo unspecified) | 2% | 0% | 3% | 0% | 0% | 14% | 8% | 12% | 4% | 11% | 6% | 0% | 4% | 1% | 0% | 16.8 µM |
| O=c1c2ccccc2[se]n1-c1nc(Nc2ccccc2)c2nc[nH]c2n1 | 1% | 0% | 0% | 1% | 0% | 0% | 6% | 28% | 3% | 0% | 0% | 1% | 0% | 4% | 0% | 32.2 µM |
